Experimental findings from PubChem BioAssay (NCI) are described below.

Structures are written as SMILES.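 How tested: cells in 96-well plates exposed to compound for 48 hours at five concentrations. TGI: total growth inhibition.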

Common to all, as to test: NCI-60 cell line screen, 48 h
In assay [1] the test system is HCT-15 colon.
In assay [2] the test system is SK-OV-3 ovarian.
The subject of assay [3] is HL-60(TB) leukemia.
The subject of assay [4] is ACHN renal.
Assay [5] deals with SNB-19 CNS.
In assay [6] the test system is KM12 colon.
In assay [7] the test system is SF-539 CNS.
Assay [8] relates to NCI-H522 lung.
Assay [9] concerns SK-MEL-28 melanoma.
Assay [10] relates to SNB-75 CNS.
The subject of assay [11] is IGROV1 ovarian.
For assay [12], the system named is MDA-N.

As for `CCSC1=N/C(=C\c2ccccc2O)C(Nc2ccc(C)cc2)=N1`, the TGI in [1], in [2], in [3], in assay [4], in [5] and in assay [6] was > 100 µM in each case. In addition, the TGI is > 100 µM in assay [7]; 94.4 µM in assay [8]; > 100 µM in assay [9]; > 100 µM in assay [10]; > 100 µM in [11].
Turning to `O=C(NO)c1coc2ccccc2c1=O`, the TGI is > 100 µM in [1]; 31.4 µM in assay [2]; > 100 µM in [3]; > 100 µM in assay [4]; > 100 µM in assay [5]; > 100 µM in [6]. Moreover, the TGI in assay [7], in assay [8], in [9], in assay [10] and in assay [11] was > 100 µM throughout.
Turning to `CCP(=O)(CC)C(Cl)(Cl)C(O)C(C)(C)C` (centres undefined), the TGI in assay [1], in assay [2], in assay [12], in assay [4], in assay [5] and in assay [8] was > 100 µM in each case. For the same compound, the TGI in [9], in assay [10] and in assay [11] was > 100 µM in each case.
With `O=C1CCCc2c1c1c(n2Cc2ccccc2)-c2ccccc2C1=O`, the TGI in [1] was 34.7 µM; in assay [2], > 100 µM; in assay [3], 58.7 µM; in assay [4] it was 30.9 µM; in assay [5] it was 41.1 µM; in assay [6] it was 47 µM. For the same compound, the TGI is 48.6 µM in assay [7]; 33.8 µM in assay [8]; 55.1 µM in [9]; > 100 µM in [10]; 72.1 µM in [11].
As to `CCOc1ccc2c(c1)/C(=C(\C(Cl)=C(Cl)Cl)[N+](=O)[O-])N2`, the TGI in [1], in [2], in [12], in assay [4], in assay [5] and in assay [6] was > 100 µM in each case. Further, the TGI in assay [7], in [9] and in [10] was > 100 µM in each case.
Turning to `Cc1ccc(C(=O)C(C)N)cc1` (centres undefined), the TGI in [1], in assay [2], in [3], in assay [4], in assay [5] and in [6] was > 100 µM throughout. Moreover, the TGI in assay [7], in assay [8], in assay [9], in assay [10] and in assay [11] was > 100 µM throughout.
For `CC(C)(C)c1ccc(CN2CCN(C(c3ccccc3)c3ccc(Cl)cc3)CC2)cc1` (centres undefined), the TGI in assay [1], in assay [2], in assay [12], in [4], in assay [5] and in assay [6] was > 100 µM throughout. In addition, the TGI in [7] is > 100 µM; in assay [8] it was 85.1 µM; in assay [9], > 100 µM; in assay [10], > 100 µM; in assay [11] it was > 100 µM.
As to `CCOP(=O)(Nc1ccc(-c2ccccc2)cc1)OCC`, the TGI in assay [1], in assay [2], in assay [12], in assay [4], in [5] and in [6] was > 100 µM each time. Moreover, the TGI in assay [8], in [9], in assay [10] and in [11] was > 100 µM throughout.
On to `CCC1CC2CN3CCc4c([nH]c5c(-c6c(OC)ccc7c8c([nH]c67)[C@]6(C(=O)OC)CC7CC(CC)C6N(CC8)C7)c(O)ccc45)[C@](C(=O)OC)(C2)C13` (some centres undefined), for which the TGI was 31.4 µM in assay [1]; 68 µM in [2]; 24.6 µM in assay [12]; 64 µM in assay [4]; 35.8 µM in assay [5]; 32.3 µM in [6]. Also, the TGI in [7] was 39.7 µM; in [8], 31.6 µM; in assay [9] it was 29.9 µM; in [10], 48.8 µM; in assay [11] it was 31.3 µM.
As for `CC1CCCC2=C1C(c1ccc(Cl)cc1)n1c(s/c(=C\c3ccc(Cl)cc3)c1=O)=N2` (centres undefined), the TGI in assay [1], in assay [2], in assay [12], in [4], in assay [5] and in assay [6] was > 100 µM in each case. In addition, the TGI in assay [9], in assay [10] and in assay [11] was > 100 µM throughout.
For the compound `CC(=O)C1=C(N=[N+]=[N-])c2cccc3cccc(c23)C1=O`, the TGI in [1] came out at 32 µM; in assay [2], 82.3 µM; in [12], 42.7 µM; in assay [4], 32.4 µM; in assay [5] it was 91.7 µM; in [6], 44.7 µM. For the same compound, the TGI in assay [7] was 42 µM; in [8] it was 29.3 µM; in assay [10], 66.9 µM; in [11], 32.6 µM.
With `CC(C)(C)[Si](C)(C)OCCCC#CCO`, the TGI in [1] is > 100 µM; in [2] it was > 100 µM; in assay [3], 70.9 µM; in [4] it was > 100 µM; in [5], > 100 µM; in [6], > 100 µM. Also, the TGI in [7], in assay [8], in [9], in [10] and in [11] was > 100 µM throughout.
